Assay results: article PMC6556873, “Rapid Covalent-Probe Discovery by Electrophile-Fragment Screening” (Journal of the American Chemical Society, 2019)
Like-named read-outs stand apart in the source and are kept apart here.

What was measured:
BSA = target: T1, BSA (Bos taurus, UniProt P02769); set-up: Intact protein LC/MS covalent labelling, fragments in pools of five, 200 uM each, 4 °C; conditions: 24 h, 4 °C, pool of five; 200 µM; covalent
T1 construct: gene ALB

NUDT7 = target: T2, NUDT7 (Homo sapiens, UniProt P0C024); set-up: Intact protein LC/MS covalent labelling, fragments in pools of five, 200 uM each, 4 °C; conditions: 24 h, 4 °C, pool of five; 200 µM; covalent
T2 construct: residues 14-235, E. coli, pNIC28-Bsa4, N-terminal His6 tag removed by TEV, construct 26672 Da

OTUB2 (OTUB2A) = target: T3, OTUB2 (OTUB2A) (Homo sapiens, UniProt Q96DC9); set-up: Intact protein LC/MS covalent labelling, fragments in pools of five, 200 uM each, 4 °C; conditions: 24 h, 4 °C, pool of five; 200 µM; covalent
T3 construct: full length residues 1-234, E. coli BL21(DE3)-R3, His tag removed by TEV, construct 27312 Da
T3 sequence (Q96DC9 1-234): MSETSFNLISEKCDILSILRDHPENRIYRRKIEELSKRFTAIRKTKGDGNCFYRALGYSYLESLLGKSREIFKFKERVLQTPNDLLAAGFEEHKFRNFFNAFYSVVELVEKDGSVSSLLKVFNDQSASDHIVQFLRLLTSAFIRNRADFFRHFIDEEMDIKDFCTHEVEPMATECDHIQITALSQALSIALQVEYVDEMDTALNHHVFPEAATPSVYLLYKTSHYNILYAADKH

PCAF = target: T4, PCAF (Homo sapiens, UniProt Q92831); set-up: Intact protein LC/MS covalent labelling, fragments in pools of five, 200 uM each, 4 °C; conditions: 24 h, 4 °C, pool of five; 200 µM; covalent
T4 construct: gene KAT2B

in vitro [1] = assay: in vitro; set-up: species or system CCD841, HEK293; conditions: human, hb2 cells, read-out: HB-2 Cells Viability (%)
in vitro [2] = assay: in vitro; set-up: species or system HB2, HEK293; conditions: human, ccd841 cells
in vitro [3] = assay: in vitro; set-up: species or system HB2, CCD841; conditions: human, hek293 cells

T2 sequence (P0C024 14-235): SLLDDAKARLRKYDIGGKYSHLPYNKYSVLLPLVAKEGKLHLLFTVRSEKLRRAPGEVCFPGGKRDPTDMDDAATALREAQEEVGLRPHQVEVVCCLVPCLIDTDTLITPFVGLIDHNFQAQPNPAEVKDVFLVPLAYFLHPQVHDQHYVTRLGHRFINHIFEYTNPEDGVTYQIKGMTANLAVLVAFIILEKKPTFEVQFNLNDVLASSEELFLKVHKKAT
T1 sequence (P02769 whole entry, the tested form may be a part): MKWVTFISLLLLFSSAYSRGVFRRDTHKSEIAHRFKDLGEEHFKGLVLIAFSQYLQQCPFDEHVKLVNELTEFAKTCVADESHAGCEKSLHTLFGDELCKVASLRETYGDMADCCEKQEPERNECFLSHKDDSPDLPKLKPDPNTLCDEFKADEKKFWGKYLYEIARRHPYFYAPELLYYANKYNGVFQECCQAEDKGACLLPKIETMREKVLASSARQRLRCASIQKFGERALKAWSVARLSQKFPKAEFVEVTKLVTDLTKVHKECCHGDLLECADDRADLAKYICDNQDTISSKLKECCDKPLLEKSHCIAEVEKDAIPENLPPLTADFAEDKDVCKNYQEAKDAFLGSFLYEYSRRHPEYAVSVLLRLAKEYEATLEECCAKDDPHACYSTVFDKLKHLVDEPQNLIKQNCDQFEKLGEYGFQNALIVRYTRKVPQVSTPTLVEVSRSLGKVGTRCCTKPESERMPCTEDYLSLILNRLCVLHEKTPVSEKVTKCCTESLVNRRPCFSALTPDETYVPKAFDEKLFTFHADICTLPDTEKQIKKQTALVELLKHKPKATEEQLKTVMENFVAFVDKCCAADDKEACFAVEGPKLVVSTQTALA
T4 sequence (Q92831 whole entry, the tested form may be a part): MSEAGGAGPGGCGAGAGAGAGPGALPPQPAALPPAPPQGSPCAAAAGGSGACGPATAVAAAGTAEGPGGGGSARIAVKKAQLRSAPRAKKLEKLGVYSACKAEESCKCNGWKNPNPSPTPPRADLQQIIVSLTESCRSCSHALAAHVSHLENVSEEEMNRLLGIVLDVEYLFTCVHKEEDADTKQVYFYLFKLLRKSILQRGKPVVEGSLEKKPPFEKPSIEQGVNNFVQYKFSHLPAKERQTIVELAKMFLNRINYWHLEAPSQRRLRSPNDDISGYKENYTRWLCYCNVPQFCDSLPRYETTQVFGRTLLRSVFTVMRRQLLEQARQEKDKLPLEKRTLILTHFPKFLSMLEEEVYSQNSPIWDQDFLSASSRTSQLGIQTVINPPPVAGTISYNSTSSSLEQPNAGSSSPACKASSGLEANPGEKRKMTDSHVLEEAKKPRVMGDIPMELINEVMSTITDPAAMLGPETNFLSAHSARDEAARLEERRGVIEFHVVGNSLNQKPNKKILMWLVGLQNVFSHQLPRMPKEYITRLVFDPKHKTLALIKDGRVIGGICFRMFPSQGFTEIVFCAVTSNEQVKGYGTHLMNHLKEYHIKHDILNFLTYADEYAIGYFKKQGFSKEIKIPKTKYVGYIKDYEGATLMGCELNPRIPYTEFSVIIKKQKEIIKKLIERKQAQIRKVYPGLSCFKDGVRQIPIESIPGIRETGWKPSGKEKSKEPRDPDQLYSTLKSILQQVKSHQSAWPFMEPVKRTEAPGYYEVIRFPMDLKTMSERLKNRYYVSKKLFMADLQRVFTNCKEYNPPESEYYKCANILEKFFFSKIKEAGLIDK

O=C(CCl)N1CC=C(c2ccccc2)CC1 [PCM-0103038]
BSA (BSA): 0
NUDT7 (NUDT7): 0
OTUB2 (OTUB2 (OTUB2A)): 0.09
PCAF (PCAF): 0
viability at 48 h, 10 µM (in vitro [1]): 90.9%
viability at 48 h, 10 µM (in vitro [2]): 86.8%
viability at 48 h, 10 µM (in vitro [3]): 89.2%

Cc1c(C#N)c(NC(=O)CCl)n(-c2ccc(F)cc2)c1C [PCM-0102099]
BSA (BSA): 0
NUDT7 (NUDT7): 0.17
OTUB2 (OTUB2 (OTUB2A)): 0
PCAF (PCAF): 0
viability at 48 h, 10 µM (in vitro [1]): 33.6%
viability at 48 h, 10 µM (in vitro [2]): 53.9%
viability at 48 h, 10 µM (in vitro [3]): 11.6%

O=C(CCl)N1CCc2sccc2C1 [PCM-0102123]
BSA (BSA): 0
NUDT7 (NUDT7): 0.14
OTUB2 (OTUB2 (OTUB2A)): 0.39
PCAF (PCAF): 0
viability at 48 h, 10 µM (in vitro [1]): 9.2%
viability at 48 h, 10 µM (in vitro [2]): 73.1%
viability at 48 h, 10 µM (in vitro [3]): 6.6%

O=C(CCl)Nc1ncc(Br)s1 [PCM-0102326]
BSA (BSA): 0
NUDT7 (NUDT7): 0
OTUB2 (OTUB2 (OTUB2A)): 0.06
PCAF (PCAF): 0
viability at 48 h, 10 µM (in vitro [1]): 38%
viability at 48 h, 10 µM (in vitro [2]): 47.7%
viability at 48 h, 10 µM (in vitro [3]): 23%

C=CC(=O)N1CCN(C(=O)OCC(C)C)CC1 [PCM-0102449]
BSA (BSA): 0
NUDT7 (NUDT7): 0
OTUB2 (OTUB2 (OTUB2A)): 0
PCAF (PCAF): 0
viability at 48 h, 10 µM (in vitro [1]): 103%
viability at 48 h, 10 µM (in vitro [2]): 80.1%
viability at 48 h, 10 µM (in vitro [3]): 76.6%

CCC(C)NC(=O)NC(=O)CCl (stereo not drawn) [PCM-0102908]
BSA (BSA): 0
NUDT7 (NUDT7): 0
OTUB2 (OTUB2 (OTUB2A)): 0
PCAF (PCAF): 0
viability at 48 h, 10 µM (in vitro [1]): 110%
viability at 48 h, 10 µM (in vitro [2]): 91.8%
viability at 48 h, 10 µM (in vitro [3]): 88.7%

CC(NC(=O)CCl)c1ccc(Cl)cc1Cl (stereo not drawn) [PCM-0102212]
BSA (BSA): 0
NUDT7 (NUDT7): 0.54
OTUB2 (OTUB2 (OTUB2A)): 0.18
PCAF (PCAF): 0
viability at 48 h, 10 µM (in vitro [1]): 37.4%
viability at 48 h, 10 µM (in vitro [2]): 58.2%
viability at 48 h, 10 µM (in vitro [3]): 37.3%

Cc1c(C#N)c(NC(=O)CCl)n(-c2ccccc2)c1C [PCM-0102261]
BSA (BSA): 0
NUDT7 (NUDT7): 0.3
OTUB2 (OTUB2 (OTUB2A)): 0.09
PCAF (PCAF): 0
viability at 48 h, 10 µM (in vitro [1]): 42.5%
viability at 48 h, 10 µM (in vitro [2]): 75.1%
viability at 48 h, 10 µM (in vitro [3]): 7.8%

CC1CCc2c(sc(NC(=O)CCl)c2C(N)=O)C1 (stereo not drawn) [PCM-0103029]
BSA (BSA): 0
NUDT7 (NUDT7): 0.09
OTUB2 (OTUB2 (OTUB2A)): 0
PCAF (PCAF): 0
viability at 48 h, 10 µM (in vitro [1]): 21%
viability at 48 h, 10 µM (in vitro [2]): 63.2%
viability at 48 h, 10 µM (in vitro [3]): 18.6%

Cc1ccc(CNC(=O)CCl)cc1F [PCM-0102959]
BSA (BSA): 0
NUDT7 (NUDT7): 0
OTUB2 (OTUB2 (OTUB2A)): 0.5
PCAF (PCAF): 0
viability at 48 h, 10 µM (in vitro [1]): 86.6%
viability at 48 h, 10 µM (in vitro [2]): 84%
viability at 48 h, 10 µM (in vitro [3]): 62.6%

Cc1ccc(-n2nc(C)c(NC(=O)CCl)c2C)cc1 [PCM-0102131]
BSA (BSA): 0
NUDT7 (NUDT7): 0
OTUB2 (OTUB2 (OTUB2A)): 0
PCAF (PCAF): 0
viability at 48 h, 10 µM (in vitro [1]): 63.8%
viability at 48 h, 10 µM (in vitro [2]): 26.3%
viability at 48 h, 10 µM (in vitro [3]): 30.1%

C=CC(=O)NCc1ccc(F)cc1 [PCM-0102839]
BSA (BSA): 0
NUDT7 (NUDT7): 0
OTUB2 (OTUB2 (OTUB2A)): 0
PCAF (PCAF): 0
viability at 48 h, 10 µM (in vitro [1]): 105%
viability at 48 h, 10 µM (in vitro [2]): 111%
viability at 48 h, 10 µM (in vitro [3]): 87.3%

Cc1cc(NC(=O)CCl)ccc1N1CCCC1 [PCM-0102175]
BSA (BSA): 0.15
NUDT7 (NUDT7): 0.13
OTUB2 (OTUB2 (OTUB2A)): 0.39
PCAF (PCAF): 0
viability at 48 h, 10 µM (in vitro [1]): 10.2%
viability at 48 h, 10 µM (in vitro [2]): 45.1%
viability at 48 h, 10 µM (in vitro [3]): 2.9%

CC(=O)N1CCc2cc(NC(=O)CCl)ccc21 [PCM-0102129]
BSA (BSA): 0
NUDT7 (NUDT7): 0.07
OTUB2 (OTUB2 (OTUB2A)): 0.31
PCAF (PCAF): 0
viability at 48 h, 10 µM (in vitro [1]): 33.4%
viability at 48 h, 10 µM (in vitro [2]): 50.6%
viability at 48 h, 10 µM (in vitro [3]): 5.9%

C=CC(=O)N1CCCN(S(=O)(=O)c2cccc3cnccc23)CC1 [PCM-0102491]
BSA (BSA): 0
NUDT7 (NUDT7): 0
OTUB2 (OTUB2 (OTUB2A)): 0
PCAF (PCAF): 0
viability at 48 h, 10 µM (in vitro [1]): 99.3%
viability at 48 h, 10 µM (in vitro [2]): 100%
viability at 48 h, 10 µM (in vitro [3]): 99.9%

C=CC(=O)N1Cc2ccccc2OC(C)(C)C1 [PCM-0102927]
BSA (BSA): 0
NUDT7 (NUDT7): 0
OTUB2 (OTUB2 (OTUB2A)): 0
PCAF (PCAF): 0
viability at 48 h, 10 µM (in vitro [1]): 104%
viability at 48 h, 10 µM (in vitro [2]): 111%
viability at 48 h, 10 µM (in vitro [3]): 93.4%

CC(C)c1nnc(NC(=O)CCl)s1 [PCM-0102928]
BSA (BSA): 0
NUDT7 (NUDT7): 0.04
OTUB2 (OTUB2 (OTUB2A)): 0
PCAF (PCAF): 0
viability at 48 h, 10 µM (in vitro [1]): 85.3%
viability at 48 h, 10 µM (in vitro [2]): 77.9%
viability at 48 h, 10 µM (in vitro [3]): 81.8%

Cl.O=C(CCl)N1CCN(C2CCS(=O)(=O)C2)CC1 (stereo not drawn) [PCM-0102405]
BSA (BSA): 0
NUDT7 (NUDT7): 0
OTUB2 (OTUB2 (OTUB2A)): 0
PCAF (PCAF): 0
viability at 48 h, 10 µM (in vitro [1]): 107%
viability at 48 h, 10 µM (in vitro [2]): 87.8%
viability at 48 h, 10 µM (in vitro [3]): 90.2%

CC(C)(C)c1cc(NC(=O)CCl)on1 [PCM-0102348]
BSA (BSA): 0
NUDT7 (NUDT7): 0
OTUB2 (OTUB2 (OTUB2A)): 0
PCAF (PCAF): 0
viability at 48 h, 10 µM (in vitro [1]): 32.8%
viability at 48 h, 10 µM (in vitro [2]): 59.9%
viability at 48 h, 10 µM (in vitro [3]): 60.9%

CC(=O)c1cc2c(cc1NC(=O)CCl)OCO2 [PCM-0103010]
BSA (BSA): 0
NUDT7 (NUDT7): 0.14
OTUB2 (OTUB2 (OTUB2A)): 0
PCAF (PCAF): 0
viability at 48 h, 10 µM (in vitro [1]): 59.9%
viability at 48 h, 10 µM (in vitro [2]): 86%
viability at 48 h, 10 µM (in vitro [3]): 69.5%

N#Cc1cccc(NC(=O)CCl)c1 [PCM-0103033]
BSA (BSA): 0
NUDT7 (NUDT7): 0
OTUB2 (OTUB2 (OTUB2A)): 0.23
PCAF (PCAF): 0
viability at 48 h, 10 µM (in vitro [1]): 6.3%
viability at 48 h, 10 µM (in vitro [2]): 19.1%
viability at 48 h, 10 µM (in vitro [3]): 7.4%

NC(=O)c1c(NC(=O)CCl)sc2c1CCCC2 [PCM-0102620]
BSA (BSA): 0
NUDT7 (NUDT7): 0.36
OTUB2 (OTUB2 (OTUB2A)): 0.16
PCAF (PCAF): 0
viability at 48 h, 10 µM (in vitro [1]): 42.3%
viability at 48 h, 10 µM (in vitro [2]): 73.1%
viability at 48 h, 10 µM (in vitro [3]): 29.6%

CC(C)N(C)C(=O)C1CCN(C(=O)CCl)CC1 [PCM-0102974]
BSA (BSA): 0
NUDT7 (NUDT7): 0
OTUB2 (OTUB2 (OTUB2A)): 0
PCAF (PCAF): 0
viability at 48 h, 10 µM (in vitro [1]): 86.7%
viability at 48 h, 10 µM (in vitro [2]): 84%
viability at 48 h, 10 µM (in vitro [3]): 79.8%

Cc1cc(S(N)(=O)=O)cc(NC(=O)CCl)c1C [PCM-0102165]
BSA (BSA): 0
NUDT7 (NUDT7): 0.09
OTUB2 (OTUB2 (OTUB2A)): 0.12
PCAF (PCAF): 0
viability at 48 h, 10 µM (in vitro [1]): 34.5%
viability at 48 h, 10 µM (in vitro [2]): 61.3%
viability at 48 h, 10 µM (in vitro [3]): 8.3%
